Where no end group is shown, it is not given here.
Legend:
[1] = tested on: full-thickness wound; assay: full-thickness wound healing on the back of mice; format: in vivo; conditions: 50 μL of 1 μM peptide applied to wound once a day for two days
Description: Mice were shaved on the back using an electric razor, followed by forming a full-thickness wound 1.1 cm in diameter using surgical scissors. Application of 50 μL of 1 μM peptide 17 to the wound was continued for 2 days, after which the size of the wound was measured. The wound healing activity of peptide 17 was expressed by the reduced area of the wound (FIG. 3). As the control, the mice were treated with distilled water instead of peptide 17.

[2] = tested on: HaCat; assay: scratched wound-healing assay of skin cell regeneration; format: cell-based, human; conditions: 1 μM peptide, 12 hrs incubation
Description: To examine whether each of the peptides synthesized in Example 1 can enhance the regeneration of skin cells, a scratched wound-healing assay was used. 900 μL of a suspension containing HaCat at a concentration of 1×10^5 CFU/ml was placed in each well of 12-well plates and incubated for 3 days. […] A clear zone was set at the center of each well of the plate using a yellow tip. After incubation for 12 hrs, a reduced area of the clear zone was measured to determine the effect of each peptide on the regeneration of skin cells (FIG. 2). For a control, no peptides were used.

[3] = tested on: human skin cell HaCat; assay: boyden chamber assay of skin cell migration; format: cell-based; design: migration of skin cells relative to a control: dose or concentration left out as unconfirmed; conditions: for skin cell migratory activity relative to the control: 1 μM peptide (most effective concentration), HaCat, control: medium without peptide; for migration of skin cells relative to a control: boyden chamber assay
Description: To examine whether each of the peptides synthesized in Example 1 could promote the migration of skin cells, a boyden chamber assay was used.
In the chamber of two compartments separated by a microporous membrane, 50 μL of a suspension containing the human skin cell HaCat at a concentration of 5×10^3 CFU/ml was placed in the upper compartment and were allowed to migrate through the pores of the membrane into the lower compartment in which a 0.25˜16 μM dilution of each of the peptides in a skin cell culture medium was present. The cells which migrated into the lower compartment were counted to determine the ability of each of the peptides to promote skin cell […] (FIG. 1). For a control, a skin cell culture medium containing none of the peptides was used.

Sequence | rate of reduction of wound area versus distilled water control [1] [fold] | rate of regeneration of skin cells (reduced area of clear zone) versus no peptide [2] [fold] | skin cell migratory activity relative to the control [3] | migration of skin cells relative to a control [3]
APKAMKLLKKLLKLQKKGI (APKAMKLLKKLLKLQKKGI-NH2) [Peptide 17] | 7 | 2.5 | about 4.5 times that of the control | 4.5 times higher than a control
APKAMRLLRRLLRLQKKGI (APKAMRLLRRLLRLQKKGI-NH2) [Peptide 26] |  | 2.5 | about 4.5 times that of the control | 4.5 times higher than a control

Reference: US8871716B2, “Use of antimicrobial peptides in regeneration of skin cells” (Korea Advanced Institute of Science and Technology, priority 2010, dated 2014)
